Patent US7470781B2, “Formulation of stabilized cationic transfection agent(s)/nucleic acid particles” (Aventis Pharma S.A., priority 1997, dated 2008)

Experiments:
[1] = Structure of complexes by low-angle X-ray diffraction and cryo-transmission electron microscopy; type: physicochemical
Protocol: The cryo-transmission electron microscopy (cryo-TEM) experiments are carried out with 7 μl of prepared samples containing 0.5 mg of DNA/ml, which are placed on a carbon-coated copper grid covered with a membrane with holes. The grids are then immersed in liquid ethane so as to convert the liquid water to vitrified water. Next, this grid is installed inside a specimen holder cooled with liquid nitrogen and introduced into the microscope (Philips CM12) for visualization.
The low-angle X-ray diffraction experiments are carried out in the synchrotron (LURE) in Orsay (France) on the D43 line. The samples are prepared at 0.5 mg DNA/ml and then centrifuged. The pellets are deposited in a cell in which the two windows consist of kapton. A germanium-containing monochromator (111 reflection) allows the selection of the wavelength of 0.138 nm.
In this study, we have determined, by low-angle X-ray diffraction and by transmission electron microscopy, the structure of the cationic lipid transfectant/DNA complexes.

[2] = test system: mice; assay: Transfection in vivo after systemic injection, luciferase activity in organs; set-up: unit not given here; settings: balbc mouse, 24 hours after tail vein injection
Protocol: The in vivo transfections are carried out by injecting, into the vein of the tail of 30-day-old mice, 200 μl of a solution containing 0.2 mg DNA/ml combined with a cationic lipid vector. 24 hours after the injection, the mice are humanely killed and then various organs are recovered (lung, liver, heart, kidney, spleen). These organs are then ground in a lysis buffer with the aid of an Ultraturax. The ground products obtained are then centrifuged, and then 10 μl of the supernatant is collected in order to assay the luciferase activity.
We compared the gene transfer efficiencies after systemic injections of precipitated RPR 120535/DNA complexes, and of these same complexes stabilized by the addition of Pluronic F68®. […] On the other hand, when the particles are colloidally stabilized by the addition of F68®, the luciferase activity is increased by a factor of 10 in the lungs, and expression is observed in other tissues (liver, heart).
Identical experiments to those described above were carried out using another lipid: BGTC. Similar results were obtained, namely an improvement in gene transfer in the lungs and a measurable expression in the liver, the heart and the kidneys. […] Indeed, given that nonviral lipid vectors are used, these complexes might have been expected to be destabilized by the presence of these endogenous lipids in a large quantity. The results of in vivo transfection of BGTC/DOPE/DNA complexes in the absence or in the presence of poloxalkol are assembled in Table IV below: […]

[3] = Size (hydrodynamic diameter) of cationic lipid/DNA complexes by photon correlation spectroscopy; type: physicochemical; settings: component alone incubated with 1% (weight/volume) poloxalkol
Protocol: The measurement of the hydrodynamic diameter is carried out with a Coulter N4Plus, using plastic cells (four transparent faces) filled with 800 μl of the various solutions, the measurement being carried out at […] in unimodal mode.
The plasmid (10 μg/ml) is placed in a solution containing 150 mM NaCl and various concentrations of poloxalkol. The lipofectant RPR 120535 is then added in order to obtain a charge ratio (+/−) 2.5. The size of the complexes is then measured by photon correlation spectroscopy according to the procedure described in Methods.
The plasmid (10 μg/ml) is placed in a solution containing 150 mM NaCl at various concentrations of poloxalkol. RPR 120531 is then added in order to obtain a charge ratio (+/−) 2.5. The size of the complexes is measured by photon correlation spectroscopy (Coulter N4plus).
Table V below represents the diameter, in nm, of the RPR 120535/DNA complexes, at the charge ratio of 2.75 (+/−) and containing 0.25 mg of DNA/ml in 150 mM NaCl, stabilized with various nonionic surface-active agents.

periodicity of lamellar structure ([1]; in the absence and in the presence of poloxalkol) | size of complexes ([1]; presence of poloxalkol) | particles detectable by Quasi-Elastic Diffusion of light [3] | SMILES | luciferase activity, Heart ([2]; 0% F68) | luciferase activity, Kidneys ([2]; 0% F68) | luciferase activity, Liver ([2]; 0% F68) | luciferase activity, Lungs ([2]; 0% F68) | luciferase activity, Heart ([2]; 10% F68) | luciferase activity, Kidneys ([2]; 10% F68) | luciferase activity, Liver ([2]; 10% F68) | luciferase activity, Lungs ([2]; 10% F68)
6.5 nm | small-sized complexes | – | CC(C)CCC[C@@H](C)[C@H]1CC[C@H]2[C@@H]3CC=C4C[C@@H](OC(=O)NCCN(CCN=C(N)N)CCN=C(N)N)CC[C@]4(C)[C@H]3CC[C@]12C [BGTC] | – | – | – | – | – | – | – | –
– | – | does not form particles | CCCCCCCCCCCCCCCCCCN(CCCCCCCCCCCCCCCCCC)C(=O)CNC(=O)CNCCCNCCCCNCCCN [RPR 120535, H2N(CH2)3NH(CH2)4NH (CH2)3NHCH2COGlyN[(CH2)17CH3]2] | 0 | 0 | 0 | 2 ± 0.9 | 1 ± 0.4 | 0 | 2 ± 3 | 14 ± 0.9
